Here are results for three molecules from patent US6586216B2 (Purdue Research Foundation, priority 1997, dated 2003).

Each structure is given as a SMILES string. Where “and” joins values, the source holds several entries; their conditions need not be identical. Identical values can stand only once. Like-named read-outs stand apart in the source and are kept apart here.

In experiment [1] the target is T1, wild type B. subtilis glutamine PRPP amidotransferase (Bacillus subtilis, UniProt P00497).
T1 construct: Enzymes of the B. subtilis class are synthesized with an NH2 terminal propeptide and an Fe—S center; made in house; host or cells: E. coli strain TX158 (purF) with plasmid pGZ1
T1 sequence (P00497 12-476): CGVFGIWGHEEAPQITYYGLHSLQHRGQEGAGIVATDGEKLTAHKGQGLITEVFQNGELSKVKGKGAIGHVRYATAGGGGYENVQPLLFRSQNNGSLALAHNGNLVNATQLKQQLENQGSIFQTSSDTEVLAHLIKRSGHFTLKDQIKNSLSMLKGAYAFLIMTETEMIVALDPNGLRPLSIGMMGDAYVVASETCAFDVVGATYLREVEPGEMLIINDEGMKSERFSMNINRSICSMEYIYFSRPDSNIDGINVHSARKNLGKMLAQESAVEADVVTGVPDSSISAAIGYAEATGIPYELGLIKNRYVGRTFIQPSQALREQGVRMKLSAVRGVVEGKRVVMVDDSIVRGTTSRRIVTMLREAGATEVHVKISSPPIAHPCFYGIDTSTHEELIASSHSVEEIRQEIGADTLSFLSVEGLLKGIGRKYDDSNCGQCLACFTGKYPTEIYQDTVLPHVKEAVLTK
Nature of the experiment: Inhibition of enzyme activity by nucleotides (glutamate formation assay), wild type. The class given is biochemical. The settings on record: wild type; for Hill coefficient determined from inhibition data: PRPP present. The procedure: Enzyme activity was assayed by measuring the initial rate of formation of the product glutamate. […] Incubation was at 37° C. for 6 min. […] Reactions were quenched in a boiling water bath for 2 min, and glutamate was determined by the glutamate dehydrogenase method.
(§1) Inhibition by nucleotides was determined by the standard assay to which varied concentrations of nucleotide were added. Synergistic inhibition was determined by varying the concentration of one nucleotide in the presence of a fixed concentration of a second nucleotide. Relative activity (see FIG. 1) refers to the enzyme activity at a given concentration of the varied nucleotide relative to that in the absence of the varied nucleotide. I0.5 values were calculated from plots of relative activity versus varied nucleotide concentration.

The target of experiment [2] is T2, Bacillus subtilis glutamine PRPP amidotransferase, wild type (Bacillus subtilis, UniProt P00497).
T2 construct: Enzymes of the B. subtilis class are synthesized with an NH2 terminal propeptide; made in house; host or cells: E. coli strain TX158 (purF), plasmid pGZ1
Nature of the experiment: Nucleotide binding by equilibrium dialysis, wild type enzyme. As to conditions: for Capacity: at saturation. The procedure:
Plasmid pGZ1 was used for production of the wild type enzyme. […] For construction of mutants, the EcoRI-HindIII purF^+ DNA was transferred to pUC118 to yield pBsF. […] The resulting plasmids were named pBsF/S283A, pBsF/K305Q, pBsF/R307Q, and pBsF/S347A.
For enzyme purification, all buffers were sparged with nitrogen gas prior to use in order to minimize oxidation of the enzyme's Fe-S cluster. All steps were carried out at 4° C. Cells were resuspended in 4 mL/gram of buffer A [50 mM Tris-HCl (pH 8.0), 10 mM MgCl2, 0.1 mM EDTA, 5 mM DTT, and 2 mM AMP] containing 1 mM PMSF, and were disrupted by two passes through a French Press. The cell extract was obtained by centrifugation for 1 h at 27,000 g. Protamine sulfate (5 mg per gram of cells) was added to the extract to precipitate DNA. […] After centrifugation, enzyme in the brown pellet was recovered by extraction twice with 30% saturated ammonium sulfate. A small colorless pellet that remained was discarded, and the dark brown enzyme solution in buffer A containing residual ammonium sulfate was stored as beads in liquid nitrogen. […] For assays of activity, the enzyme was diluted 1:1000 in […] Tris-HCl (pH 8.0) containing 1 mg/mL bovine serum albumin. For measurements of ligand binding by equilibrium dialysis and for crystallization experiments, the enzyme was dialyzed anaerobically against buffer B [50 mM Tris-HCl (pH 8.0), 0.1 mM EDTA, and 5 mM DTT] prior to being used.
Nucleotide binding was determined by equilibrium dialysis using chambers of 150 μL that were separated by a 12000-14000 molecular weight dialysis membrane. […] In some experiments, the chambers with radioactive nucleotide also contained a fixed concentration of a second non-radioactive nucleotide. The other chamber contained 50 mM Tris-HCl (pH 7.5) and 50-200 μM enzyme, calculated as the subunit concentration, in a volume of 100 μL. Dialysis was carried out for 20 h at room temperature (˜22° C.) in a rotating apparatus. Samples of 80 μL were retrieved from each chamber and were counted for radioactivity. All experiments were performed in an anaerobic glovebox. […] Equilibrium binding data were fit to the Hill equation (Y=C [free ligand]^n/[…]+[free ligand]^n, where Y is the fractional saturation, C is the binding capacity, Kd is the dissociation constant, and n is the Hill coefficient) by nonlinear regression using Ultrafit software (Biosoft, Cambridge, UK).

Experiment [3] has as its target T3, Bacillus subtilis glutamine PRPP amidotransferase variant K305Q (Bacillus subtilis, UniProt P00497, K316Q).
T3 construct: Enzymes of the B. subtilis class are synthesized with an NH2 terminal propeptide; made in house; host or cells: E. coli strain TX158 (purF), plasmid pBsF/K305Q
Put plainly: Inhibition of enzyme activity (glutamate formation) by nucleotides, mutant K305Q. The class given is biochemical.
Excerpt: Plasmid pGZ1 was used for production of the wild type enzyme. Plasmid pGZ1 contains a 1.6 kb EcoRI-HindIII purF^+ fragment (Makaroff, C. A., Zalkin, H., Switzer, R. L., and Vollmer, S. J. (1983) J. Biol. Chem. 258, pp. 10586-10593) inserted into the corresponding sites of pUC18. For construction of mutants, the EcoRI-HindIII purF^+ DNA was transferred to pUC118 to yield pBsF. Mutations were constructed by the method of Kunkel et al. (Kunkel, T. A., Roberts, J. D., and Zakour, R. A. (1987) Methods Enzymol. 154, pp. 367-382) using pBsF phagemid DNA. The resulting plasmids were named pBsF/S283A, pBsF/K305Q, pBsF/R307Q, and pBsF/S347A.
Enzyme activity was assayed by measuring the initial rate of formation of the product glutamate. […] Incubation was at 37° C. for 6 min. The reaction was linear with time for at least 20 min under these conditions of assay. Reactions were quenched in a boiling water bath for 2 min, and glutamate was determined by the glutamate dehydrogenase method. The control reaction mixture contained all the components except PRPP.
as §1
Site directed mutagenesis was utilized to modify amino acids comprising the A site and C site domains of the glutamine PRPP amidotransferase. These modified forms of amidotransferase were analyzed to determine the impact of the mutations on end-product inhibition and enzymatic activity. Inhibition by nucleotides was determined as described in Example 1.

[4] abbreviates: no fixed nucleotide, pH 7.5, ~22° C., half-saturation of the two sites, read-out: Kd (apparent).
Where [5] appears, read: I0.5, no fixed nucleotide, 2.5 mM PRPP, pH 8.0, 37° C.

T3 sequence (P00497 12-476 K316Q): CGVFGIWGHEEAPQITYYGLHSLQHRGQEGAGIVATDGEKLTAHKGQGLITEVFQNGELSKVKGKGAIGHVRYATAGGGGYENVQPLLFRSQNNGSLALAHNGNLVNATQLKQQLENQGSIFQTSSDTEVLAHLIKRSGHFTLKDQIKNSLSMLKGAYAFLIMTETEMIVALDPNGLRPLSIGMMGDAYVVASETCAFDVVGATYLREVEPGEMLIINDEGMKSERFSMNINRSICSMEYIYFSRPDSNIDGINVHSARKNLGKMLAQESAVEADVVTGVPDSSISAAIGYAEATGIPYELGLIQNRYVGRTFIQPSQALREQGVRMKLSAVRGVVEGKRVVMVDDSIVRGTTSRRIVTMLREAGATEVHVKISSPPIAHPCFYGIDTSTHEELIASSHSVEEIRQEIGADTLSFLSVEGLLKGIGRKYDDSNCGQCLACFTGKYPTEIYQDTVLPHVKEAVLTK

With `Nc1ncnc2c1ncn2[C@@H]1O[C@H](COP(=O)(O)OP(=O)(O)O)[C@@H](O)[C@H]1O` [ADP], in experiment [1], the “Hill coefficient determined from inhibition data” value amounted to 3.8. Also, the syn. amounted to 1.9 in experiment [1] (fixed AMP 0.1 mM); 29.0 in experiment [1] (fixed GMP 0.50 mM); 59 in experiment [1] (fixed GMP 1.0 mM); 118.0 in experiment [1] (fixed GMP 2.0 mM); 188.0 in experiment [1] (fixed GMP 4.0 mM). For the same molecule, the results for the “syn. (decreased I0.5 due to a second nucleotide)” value in experiment [1] (fixed GMP 0.25 mM), in experiment [3] (fixed GMP 0.50 mM) and in experiment [3] (fixed GMP 5.0 mM) were 20, 2.6 fold and 97.0 fold, respectively. In addition, the “concentration required for 50% inhibition relative to that of AMP” value in experiment [1] (single nucleotide) stood at 5 fold. The “decrease of Kd in the presence of GMP” value in experiment [2] (GMP present) worked out at 20 fold. Further, the Kd was about 10 µM in experiment [2] (Kd, GMP fixed at either 0.25 or 1.0 mM); 10.4 ± 2.7 µM in experiment [2] (fixed GMP 0.25 mM, read-out: Kd); 11 µM in experiment [2] (fixed GMP 1.0 mM, read-out: Kd); 214 µM and ~214 µM in experiment [2] (setting [4]). In addition, the Capacity in experiment [2] (fixed GMP 0.25 mM) was 0.82 ± 0.11 Equivalents bound per subunit; in experiment [2] (fixed GMP 1.0 mM) it was 0.94 ± 0.14 Equivalents bound per subunit; in experiment [2] (no fixed nucleotide), 1.83 Equivalents bound per subunit and 1.83 ± 0.26 Equivalents bound per subunit. Besides, in experiment [2] (no fixed nucleotide), the Hill coefficient was found to be 1.8. The IC50 in experiment [3] (I0.5, fixed GMP 0.50 mM) was found to be 12000 µM; in experiment [3] (I0.5, fixed GMP 5.0 mM), 320 µM; in experiment [3] (setting [5]), 31000 µM.
For `Nc1ncnc2c1ncn2[C@@H]1O[C@H](COP(=O)(O)O)[C@@H](O)[C@H]1O` [AMP], the “Hill coefficient determined from inhibition data” value in experiment [1] is given as 3.3-3.8. In addition, the syn. is listed as 1.4 in experiment [1] (fixed ADP 0.5 mM) and 1.0 in experiment [1] (fixed GMP 1.0 mM). Further, the Capacity in experiment [2] (fixed ADP 0.25 mM) was 0.94 ± 0.16 Equivalents bound per subunit; in experiment [2] (fixed ADP 0.5 mM), “approximately 0.4 Equivalents bound per subunit”; in experiment [2] (fixed GMP 1.0 mM) it was 1.05 ± 0.21 Equivalents bound per subunit; in experiment [2] (no fixed nucleotide), 1.57 Equivalents bound per subunit and 1.57 ± 0.27 Equivalents bound per subunit. Further, the Kd in experiment [2] (fixed ADP 0.25 mM, read-out: Kd) was 77 µM; in experiment [2] (fixed GMP 1.0 mM, read-out: Kd) it was 103 µM; in experiment [2] (setting [4]), 240 µM and 239 µM. Also, the “increase of binding affinity by GMP or ADP” value in experiment [2] (fixed GMP or ADP) is listed as 2-3 fold. In experiment [2] (no fixed nucleotide), the Hill coefficient is on record as 3.4. Moreover, the IC50 in experiment [3] (setting [5]) was determined as 2500 µM.
Regarding `Nc1nc2c(ncn2[C@@H]2O[C@H](COP(=O)(O)O)[C@@H](O)[C@H]2O)c(=O)[nH]1` [GMP], the values for the syn. in experiment [1] (fixed ADP 0.5 mM) and in experiment [1] (fixed AMP 0.1 mM) were 63 and 0.95, respectively. Further, the “concentration required for 50% inhibition relative to that of ADP” value in experiment [1] (single nucleotide) came to 2 fold. Besides, in experiment [1] (single nucleotide), the “concentration required for 50% inhibition relative to that of AMP” value is reported as 10 fold. For the same molecule, the “increased binding affinity (C site) relative to AMP” value in experiment [2] (ADP bound to the A site) worked out at 3 fold. Also, in experiment [2] (ADP bound to the A site), the “increased binding affinity (C site) relative to IMP” value is listed as 3 fold. The Kd in experiment [2] (Kd, fixed ADP 0.5 mM) is 25 µM; in experiment [2] (Kd, no fixed nucleotide, not detected) it was over 500 µM; in experiment [2] (no fixed nucleotide, binding too weak to detect, read-out: Kd), over 500 µM. Moreover, in experiment [2] (assuming a synergism of 20-fold), the “Kd for the free enzyme, estimated” value is “approximately 500 μM”. Further, the Capacity in experiment [2] (fixed ADP 0.5 mM) is given as 0.98 ± 0.10 Equivalents bound per subunit. Further, the half-maximal inhibitory concentration (IC50) in experiment [3] (I0.5, fixed ADP 0.5 mM) worked out at 6000 µM; in experiment [3] (I0.5, fixed ADP 2.5 mM), 1300 µM; in experiment [3] (setting [5]), 50000 µM. The “syn. (decreased I0.5 due to a second nucleotide)” value in experiment [3] (fixed ADP 0.5 mM) is listed as 8.3 fold; in experiment [3] (fixed ADP 2.5 mM), 38.0 fold.
